What all share (assay): DTP human tumour cell line panel, 48 h
Experiment [1] relates to RXF 393.
Experiment [2] has as its system IGROV-1.
Experiment [3] relates to CCRF-CEM.
Experiment [4] has as its system SW-620.
In experiment [5] the test system is OVCAR-4.
Experiment [6] concerns HL-60.
In experiment [7] the test system is U-251.
The subject of experiment [8] is M14.
Experiment [9] deals with UACC-257.
For experiment [10], the system named is 786-0.
Experiment [11] concerns NCI-H23.
Experiment [12] has as its system LOX IMVI.
Experiment [13] deals with K562.
The test system of experiment [14] is SF-539.
Experiment [15] concerns HCT-15.
The subject of experiment [16] is KM12.
The subject of experiment [17] is SF-295.
In experiment [18] the test system is MCF7.
In experiment [19] the test system is HOP-62.

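A five-concentration, 48-hour dose response in 96-well plates underlies each endpoint, interpolated linearly between surrounding concentrations. The concentration for 50% growth inhibition is given as GI50.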 Active and inactive are the calls of the source. No stated cut-off is given here; in the data, active = GI50 up to about 1.1 µM and inactive = higher. Bounds are passed on as bounds.

For the compound `N=c1oc2ccc(Cl)cc2cc1C(N)=O`, the GI50 was 29.6 µM (inactive) in experiment [1]; 21.4 µM (inactive) in [2]; 40.6 µM (inactive) in [3]; 45.9 µM (inactive) in [4]; 37.1 µM (inactive) in experiment [5]; 54.2 µM (inactive) in experiment [6]. The GI50 in experiment [7] is 40.4 µM (inactive); in experiment [8], 27.5 µM (inactive); in experiment [9], 45.4 µM (inactive); in [10], 24.8 µM (inactive); in experiment [11] it was 22.4 µM (inactive); in experiment [12] it was 31.8 µM (inactive). The GI50 was > 100 µM (inactive) in experiment [13], 31.3 µM (inactive) in [14], 29.4 µM in experiment [15] and 24.2 µM (inactive) in experiment [16].

Turning to `COCOCCC#CCO`, the GI50 in experiment [1], in experiment [2], in experiment [3], in experiment [4], in experiment [6] and in experiment [7] was > 100 µM (inactive) each time. Further, the GI50 in [8] was > 100 µM (inactive); in experiment [9], > 100 µM (inactive); in experiment [10] it was > 100 µM (inactive); in experiment [11], 32.4 µM (inactive); in experiment [17] it was > 100 µM (inactive); in experiment [12], > 100 µM (inactive). In addition, the GI50 is > 100 µM (inactive) in experiment [13], > 100 µM (inactive) in [14], more than 100 µM in [15] and > 100 µM (inactive) in [16].

With `O=C1c2ccccc2C(=O)N1n1c(Cc2ccccc2)n[nH]c1=O`, the GI50 in experiment [2], in experiment [3], in experiment [4], in experiment [5], in [18] and in experiment [7] was > 100 µM (inactive) each time. The GI50 in [8], in [9], in experiment [10], in [11], in experiment [17] and in experiment [12] was > 100 µM (inactive) in each case. For the same compound, the GI50 in experiment [13] is > 100 µM (inactive); in experiment [14] it was > 100 µM (inactive); in experiment [15], more than 100 µM; in experiment [19], > 100 µM (inactive); in experiment [16] it was > 100 µM (inactive).

Consider `c1ccc2c(Nc3ncco3)cccc2c1`, for which the GI50 in experiment [2], in experiment [3], in experiment [4], in [5], in experiment [18] and in [7] was > 10 µM (inactive) each time. Besides, the GI50 in [8], in experiment [9], in experiment [10], in experiment [11], in [17] and in experiment [12] was > 10 µM (inactive) each time. Besides, the GI50 in experiment [13] was > 10 µM (inactive); in [14], > 10 µM (inactive); in experiment [15] it was more than 10 µM; in [19], > 10 µM (inactive); in experiment [16], > 10 µM (inactive).

With `COC(=O)C12C(=O)O[C@H](C)C1(O)C(C)C(=O)N2C` (stereo partly drawn), the GI50 in [1], in [2], in [5], in experiment [7], in experiment [8] and in [10] was > 100 µM (inactive) each time. For the same compound, the GI50 is > 100 µM (inactive) in [11]; > 100 µM (inactive) in [17]; > 100 µM (inactive) in experiment [13]; > 100 µM (inactive) in [14]; more than 100 µM in [15]; > 100 µM (inactive) in experiment [19]. In addition, the GI50 in experiment [16] was > 100 µM (inactive).

In the case of `CCOc1ccc(NC(=O)C2=C(C)NC(C)=C(C(=O)Nc3ccc(OCC)cc3)C2c2ccc(O)c(OC)c2)cc1`, the GI50 in experiment [1] was 28.9 µM (inactive); in experiment [2], > 100 µM (inactive); in experiment [3], 46.9 µM (inactive); in [4], > 100 µM (inactive); in experiment [5], 36.9 µM (inactive); in [6], 42.7 µM (inactive). In addition, the GI50 in [7] was 55.6 µM (inactive); in experiment [8] it was > 100 µM (inactive); in experiment [9] it was 47.8 µM (inactive); in experiment [10], 48.9 µM (inactive); in experiment [11], > 100 µM (inactive); in experiment [17] it was 54.7 µM (inactive). Besides, the GI50 in experiment [12] is > 100 µM (inactive); in experiment [13], 40.8 µM (inactive); in [14], 28.8 µM (inactive); in [19], 29.5 µM (inactive); in experiment [16] it was 47.9 µM (inactive).

For the compound `CC1=C[C@@H](C)C[C@]2(C)CC[C@H](O2)[C@]23CC[C@](C)(C[C@H](O2)[C@@H]2O[C@@](C)(CC2=O)[C@@H](O)[C@H]2CC[C@@]4(CCC[C@@H](O4)[C@H](C)C(=O)O[C@H]4C[C@H]([C@]5(O)OCC[C@H](C)[C@@H]5O)O[C@H]4C=C1)O2)O3`, the 50% growth inhibitory concentration (GI50) is 0.00146 µM (active) in experiment [1]; 0.00339 µM (active) in experiment [2]; 0.00188 µM (active) in experiment [3]; 0.0684 µM (active) in experiment [4]; 0.00344 µM (active) in [5]; 0.0346 µM (active) in [6]. Besides, the concentration for 50% growth inhibition (GI50) in experiment [7] was 0.0146 µM (active); in experiment [8], 0.00527 µM (active); in experiment [9], 0.0148 µM (active); in [10], 0.0027 µM (active); in experiment [11], 0.0118 µM (active); in [17], 0.00113 µM (active). The GI50 was < 0.001 µM (active) in experiment [12]; 0.00692 µM (active) in [13]; 0.00185 µM (active) in experiment [14]; 0.00796 µM in experiment [15]; 0.0015 µM (active) in [19]; 0.0586 µM (active) in experiment [16].

`O=c1c2cc([N+](=O)[O-])ccc2n2n1CCCC2`: the GI50 in experiment [1], in experiment [2], in experiment [3], in [4], in [5] and in [6] was > 100 µM (inactive) each time. In addition, the GI50 in experiment [7], in experiment [8], in experiment [9], in experiment [10], in experiment [11] and in [17] was > 100 µM (inactive) each time. Moreover, the GI50 was > 100 µM (inactive) in experiment [12]; > 100 µM (inactive) in [13]; > 100 µM (inactive) in experiment [14]; more than 100 µM in [15]; > 100 µM (inactive) in [19]; > 100 µM (inactive) in experiment [16].

Consider `O=C(Cc1ccccc1)N/N=C(/c1nc2ccc([N+](=O)[O-])cc2nc1O)C(O)c1ccco1` (stereo not drawn), for which the GI50 in [2] is > 100 µM (inactive); in [3], 43.7 µM (inactive); in [4], > 100 µM (inactive); in experiment [5] it was > 100 µM (inactive); in experiment [6] it was 31.8 µM (inactive); in [7] it was > 100 µM (inactive). Moreover, the GI50 in [8], in experiment [9], in experiment [10], in experiment [11], in [17] and in experiment [12] was > 100 µM (inactive) throughout. The GI50 in experiment [13] is 44.4 µM (inactive); in [14], > 100 µM (inactive); in [15] it was 67.8 µM; in experiment [19], > 100 µM (inactive); in experiment [16] it was > 100 µM (inactive).

In the case of `O=C1CC(=O)NC(NN2C(=O)/C(=C/c3ccc(Cl)cc3)N=C2c2ccccc2)=N1`, the GI50 in experiment [1] was 14.1 µM (inactive); in [2] it was 13.2 µM (inactive); in [3] it was 6.4 µM (inactive); in [4] it was 17.4 µM (inactive); in experiment [5], 5.64 µM (inactive); in experiment [18], 21.2 µM (inactive). Further, the GI50 is 15.6 µM (inactive) in experiment [7]; 14.5 µM (inactive) in experiment [8]; 17.8 µM (inactive) in experiment [9]; 17 µM (inactive) in [10]; 16 µM (inactive) in experiment [11]; 14.5 µM (inactive) in [17]. The GI50 in [13] is 9.62 µM (inactive); in experiment [14] it was 16.8 µM (inactive); in experiment [15] it was 15 µM; in experiment [19], 15.5 µM (inactive); in [16], 13 µM (inactive).

For `CC1=C(C(=O)CC(=O)C(=O)Nc2ccccc2)Sc2ccccc2N1`, the GI50 in experiment [1], in [2], in [3], in experiment [4], in [5] and in experiment [6] was > 100 µM (inactive) throughout. Also, the GI50 in experiment [7], in [8], in experiment [9], in experiment [10], in experiment [11] and in experiment [17] was > 100 µM (inactive) in each case. Besides, the GI50 is > 100 µM (inactive) in experiment [12]; > 100 µM (inactive) in experiment [13]; > 100 µM (inactive) in experiment [14]; more than 100 µM in experiment [15]; > 100 µM (inactive) in experiment [19]; > 100 µM (inactive) in [16].

In the case of `O=C1OCCC1(Cc1ccc(Cl)cc1)Cc1ccc(Cl)cc1`, the GI50 in experiment [2] was > 100 µM (inactive); in experiment [3], > 100 µM (inactive); in experiment [4] it was > 100 µM (inactive); in experiment [5] it was 36.2 µM (inactive); in experiment [6] it was > 100 µM (inactive); in experiment [7], 52.1 µM (inactive). The GI50 in experiment [8] is > 100 µM (inactive); in experiment [9], > 100 µM (inactive); in experiment [10], 64.6 µM (inactive); in experiment [11], 53.2 µM (inactive); in [17], 34 µM (inactive); in experiment [13], > 100 µM (inactive). For the same compound, the GI50 in experiment [19] is 31.3 µM (inactive); in experiment [16], > 100 µM (inactive).

These data come from ChEMBL document CHEMBL1201862, “PubChem BioAssay data set” (2004).
